Test results from US7528141B2, “Use of cyclopenta[g]quinazoline derivatives for treating cancer” (BTG International Limited, priority 2001, dated 2009).
Values joined by “and” are separate entries in the source; they are usually repeats but may differ in a detail not shown here. Identical values can stand only once. Like-named read-outs stand apart in the source and are kept apart here.

Legend:
[1] = molecular target: T1, reduced-folate carrier (RFC) (Homo sapiens, UniProt P41440); assay: Inhibition of 3H MTX uptake in W1L2 cells; assay type: cell-based; details: Inhibition of 3H MTX uptake Ki, W1L2, human lymphoblastoid W1L2 cells; high Ki = low affinity for RFC
T1 construct: endogenous in cells; host or cells: W1L2
T1 sequence (P41440 1-591): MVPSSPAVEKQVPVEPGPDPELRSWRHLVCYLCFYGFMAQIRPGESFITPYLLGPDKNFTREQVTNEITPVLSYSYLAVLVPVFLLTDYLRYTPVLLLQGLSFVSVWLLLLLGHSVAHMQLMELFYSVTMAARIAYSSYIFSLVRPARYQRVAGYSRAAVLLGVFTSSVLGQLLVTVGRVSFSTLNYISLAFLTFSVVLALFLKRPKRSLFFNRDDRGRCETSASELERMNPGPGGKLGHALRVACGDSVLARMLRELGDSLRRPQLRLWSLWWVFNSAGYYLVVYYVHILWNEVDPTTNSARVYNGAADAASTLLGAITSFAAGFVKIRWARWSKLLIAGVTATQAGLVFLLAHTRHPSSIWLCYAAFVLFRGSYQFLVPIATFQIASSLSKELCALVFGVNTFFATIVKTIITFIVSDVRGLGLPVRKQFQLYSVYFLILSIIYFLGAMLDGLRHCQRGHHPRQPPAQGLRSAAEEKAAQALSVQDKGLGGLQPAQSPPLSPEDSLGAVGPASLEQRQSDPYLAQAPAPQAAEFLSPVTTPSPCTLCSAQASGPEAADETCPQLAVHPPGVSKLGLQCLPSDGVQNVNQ

A431-FBP cells = assay: Inhibition of cell growth, A431-FBP cells; details: for fold increased sensitivity compared with A431, A431-FBP: A431 IC50 vs A431-FBP IC50; for fold increased IC50 in presence of folic acid, A431-FBP: IC50 + 1 μM FA vs without FA
α-FR [2] = molecular target: T2, α-FR (Homo sapiens, UniProt P15328); assay: Binding to α-FR relative to folic acid, A431-FBP cells; details: human A431 cells transfected with α-FR; folic acid = 1
T2 construct: expressed in transfected cells; host or cells: A431 (human vulvar carcinoma)

[3] = molecular target: T3, thymidylate synthase (TS) from L1210 mouse leukaemia cells (Mus musculus, UniProt P07607); assay: Inhibition of isolated L1210 thymidylate synthase; assay type: biochemical
T3 construct: obtained in partially purified form from L1210 mouse leukaemia cells; endogenous in cells; host or cells: L1210 mouse leukaemia cells (enzyme partially purified)

KB cells = assay: Inhibition of cell growth, KB cells; details: for fold increased IC50 in presence of folic acid, KB: IC50 + 1 μM FA vs without FA;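 on all read-outs here: KB nasopharyngeal carcinoma cells express the α-folate receptor, and leucovorin at 20 nM was the folate source in the growth medium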
A431 cells = assay: Inhibition of cell growth, A431 cells; details: for fold increased IC50 in presence of folic acid, A431: IC50 + 1 μM FA vs without FA
[4] = molecular target: T4, reduced-folate carrier (RFC) (Mus musculus, UniProt P41438); assay: Inhibition of 3H MTX uptake in L1210 cells; assay type: cell-based; details: Inhibition of 3H MTX uptake Ki, L1210, mouse L1210 tumor cells; high Ki = low affinity for RFC
T4 construct: endogenous in cells; host or cells: L1210
T4 sequence (P41438 1-512): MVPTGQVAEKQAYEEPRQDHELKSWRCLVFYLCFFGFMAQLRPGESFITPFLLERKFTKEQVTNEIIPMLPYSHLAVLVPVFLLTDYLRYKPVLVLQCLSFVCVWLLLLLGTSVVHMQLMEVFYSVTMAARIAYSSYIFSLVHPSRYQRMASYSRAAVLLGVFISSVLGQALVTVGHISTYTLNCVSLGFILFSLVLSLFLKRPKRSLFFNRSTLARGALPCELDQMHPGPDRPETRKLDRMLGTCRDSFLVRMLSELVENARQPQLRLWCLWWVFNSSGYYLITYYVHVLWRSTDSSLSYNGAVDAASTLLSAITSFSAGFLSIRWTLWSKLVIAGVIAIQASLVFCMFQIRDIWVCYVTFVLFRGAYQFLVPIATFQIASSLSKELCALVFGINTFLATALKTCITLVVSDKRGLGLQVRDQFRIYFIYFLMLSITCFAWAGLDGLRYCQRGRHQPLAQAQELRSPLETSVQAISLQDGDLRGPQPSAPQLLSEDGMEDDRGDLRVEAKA

α-FR [5] = molecular target: T5, α-FR (Mus musculus, UniProt P35846); assay: Binding to α-FR relative to folic acid, L1210-FBP cells; details: L1210-FBP mouse tumor cells overexpressing α-FR; folic acid = 1
T5 construct: endogenous in cells; host or cells: mouse L1210-FBP cells

[6] = Homo sapiens, read-out: Inhibition of cell growth, IC50, A431-FBP
[7] = read-out: Inhibition of isolated L1210 TS, Kiapp
[8] = Homo sapiens, KB, read-out: Inhibition of cell growth, IC50, KB, 20 nM LV
[9] = Homo sapiens, A-431, read-out: Inhibition of cell growth, IC50, A431
[10] = read-out: Inhibition of cell growth, IC50, A431-FBP + 1 μM FA, 20 nM LV, + 1 μM folic acid
[11] = read-out: Inhibition of cell growth, IC50, KB + 1 μM FA, 20 nM LV, + 1 μM folic acid
[12] = read-out: Inhibition of cell growth, IC50, A431 + 1 μM FA, 20 nM LV, + 1 μM folic acid
[13] = Inhibition of isolated L1210 TS, Kiapp

T5 sequence (P35846 25-232): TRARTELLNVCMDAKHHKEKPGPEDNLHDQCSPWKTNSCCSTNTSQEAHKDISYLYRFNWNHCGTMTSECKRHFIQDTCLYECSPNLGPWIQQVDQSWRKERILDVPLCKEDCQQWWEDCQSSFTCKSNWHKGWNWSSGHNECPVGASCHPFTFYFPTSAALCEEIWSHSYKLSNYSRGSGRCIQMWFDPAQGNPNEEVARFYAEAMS
T2 sequence (P15328 25-234): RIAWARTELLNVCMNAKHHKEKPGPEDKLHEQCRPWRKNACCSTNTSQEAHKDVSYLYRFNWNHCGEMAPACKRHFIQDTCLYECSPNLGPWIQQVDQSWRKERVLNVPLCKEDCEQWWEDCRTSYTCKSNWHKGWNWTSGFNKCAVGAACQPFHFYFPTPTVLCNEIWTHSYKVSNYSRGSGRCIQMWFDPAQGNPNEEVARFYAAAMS
T3 sequence (P07607 whole entry): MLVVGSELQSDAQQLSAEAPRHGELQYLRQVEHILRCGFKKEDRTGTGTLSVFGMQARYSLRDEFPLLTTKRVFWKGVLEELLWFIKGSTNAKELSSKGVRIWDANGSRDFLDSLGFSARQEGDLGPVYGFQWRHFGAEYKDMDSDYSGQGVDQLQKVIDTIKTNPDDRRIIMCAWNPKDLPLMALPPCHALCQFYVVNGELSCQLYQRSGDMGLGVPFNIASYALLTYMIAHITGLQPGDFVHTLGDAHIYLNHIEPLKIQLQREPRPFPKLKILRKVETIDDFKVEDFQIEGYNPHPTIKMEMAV

Ki [1] | fold increased IC50 in presence of folic acid, A431-FBP (A431-FBP cells; 20 nM LV) | IC50 (A431-FBP cells; [6]) [nM] | Inverse relative affinity for α-FR, A431-FBP (α-FR [2]) | Ki [3, 7] [nM] | fold increased IC50 in presence of folic acid, KB (KB cells; 20 nM LV) | IC50 (KB cells; [8]) [nM] | fold increased IC50 in presence of folic acid, A431 (A431 cells; 20 nM LV) | IC50 (A431 cells; [9]) [nM] | Ki [4] | Inverse relative affinity for α-FR, L1210-FBP (α-FR [5]) | IC50 (A431-FBP cells; [10]) [nM] | IC50 (KB cells; [11]) [nM] | IC50 (A431 cells; [12]) [nM] | IC50 (KB cells; read-out: Inhibition of cell growth, IC50, KB, 20 nM LV) [nM] | SMILES | fold increased sensitivity compared with A431, A431-FBP (A431-FBP cells; 20 nM LV) | Ki [3, 13]
279000 ± 146000 nM | (130) fold | 6.5 ± 0.1 | 0.59 ± 0.03 | 0.42 | (140) fold | 5.3 ± 2.5 | (1) fold | 1400 ± 230 | 166000 ± 34000 nM | 0.60 ± 0.06 | – | – | – | – | C#CCN(c1ccc(C(=O)N[C@@H](CCC(=O)N[C@H](CCC(=O)O)C(=O)O)C(=O)O)cc1)C1CCc2cc3nc(C)[nH]c(=O)c3cc21 (mixture of isomers) [CB300638 (R, S), N-{-{4-[N-((6RS)-2-methyl-4-oxo-3,4,7,8-tetrahydro-6H-cyclopenta[g]quinazolin-6-yl)-N-(prop-2-ynyl)amino]benzoyl}-L-γ-glutamyl}-D-glutamic acid] | (220) fold | –
> 250000 nM | (2100) fold | 0.92 ± 0.12 | 0.64 ± 0.046 | 0.78 | (430) fold | 5.1 ± 0.31 | (1) fold | 2200 ± 170 | > 250000 nM | 0.62 ± 0.04 | 1900 ± 170 | 2200 ± 400 | 2100 ± 58 | – | C#CCN(c1ccc(C(=O)N[C@@H](CCC(=O)N(C)C(CCC(=O)O)C(=O)O)C(=O)O)cc1)C1CCc2cc3nc(C)[nH]c(=O)c3cc21 (mixture of isomers) [CB300899 (R, S), N-methyl-N-{N-{4-[N-((6RS)-2-methyl-4-oxo-3,4,7,8-tetrahydro-6H-cyclopenta[g]quinazolin-6-yl)-N-(prop-2-ynyl)amino]benzoyl}-L-γ-glutamyl}-L-glutamic acid] | (2400) fold | –
– | (180) fold | 28 | – | – | – | – | (1) fold | 4500 | – | – | – | – | – | – | C#CCN(c1ccc(C(=O)N[C@@H](CCC(=O)N(C)[C@@H](CCC(=O)O)C(=O)O)C(=O)O)cc1)C1CCc2cc3nc(CO)[nH]c(=O)c3cc21 (mixture of isomers) [CB300960 (R, S), N-{N-{4-[N-((6RS)-2-hydroxymethyl-4-oxo-3,4,7,8-tetrahydro-6H-cyclopenta[g]quinazolin-6-yl)-N-(prop-2-ynyl)amino]benzoyl}-L-γ-glutamyl}-N-methyl-L-glutamic acid] | – | –
– | – | 260 ± 120 | – | – | – | – | – | 1200 ± 630 | 46000 ± 17000 nM | – | 450 ± 140 | – | 1400 ± 560 | – | C#CCN(Cc1ccc2nc(N)[nH]c(=O)c2c1)c1ccc(C(=O)N[C@@H](CCC(=O)O)C(=O)O)cc1 [CB3717, reference compound] | – | –
1300 nM | (1) fold | 1400 ± 360 | – | 23 | (2) fold | 130 ± 6 | (1) fold | 2200 ± 260 | 4300 nM and 4700 nM | 0.30 ± 0.07 | 1500 ± 290 | 310 ± 40 | 2600 ± 920 | – | C#CCN(Cc1cc2c(=O)[nH]c(C)nc2cc1C)c1ccc(C(=O)N[C@@H](CCC(=O)O)C(=O)O)cc1 [CB3900, reference compound] | (2) fold | –
– | (2) fold | 8800 | 0.57 ± 0.032 | 12 | (11) fold | 420 | (1) fold | 4200 | – | 0.71 ± 0.012 | 18000 | – | 5800 | 500 | C#CCN(c1ccc(C(=O)N[C@@H](CCC(=O)O)C(=O)O)cc1)C1CCc2cc3nc(CO)[nH]c(=O)c3cc21 (stereo partly drawn) [CB300959 (R, S), reference compound] | (0.5) fold | –
1200 nM and 1000 nM | – | 12 ± 5 | – | – | – | 2 ± 0.4 | – | 24 ± 4 | 2600 ± 60 nM | – | 20 ± 4.6 | 20 ± 2 | 26 ± 3.8 | – | C#CCN(Cc1ccc2nc(C)[nH]c(=O)c2c1)c1ccc(C(=O)N[C@@H](CCC(=O)O)C(=O)O)cc1 [ICI 198583, reference compound] | – | –
– | – | 0.79 ± 0.36 | – | 510 | – | 1.1 ± 0.71 | – | 3.4 ± 1.6 | 2600 nM and 2300 nM | – | 1.3 ± 0.7 | 1.2 ± 0.59 | 3.6 ± 1.6 | – | Cc1nc2ccc(CN(C)c3ccc(C(=O)N[C@@H](CCC(=O)O)C(=O)O)s3)cc2c(=O)[nH]1 [Raltitrexed, reference compound] | – | –

SMILES | Ki [1] | fold increased IC50 in presence of folic acid, A431-FBP (A431-FBP cells; 20 nM LV) | IC50 (A431-FBP cells; [6]) [nM] | Inverse relative affinity for α-FR, A431-FBP (α-FR [2]) | Ki [3, 7] [nM] | fold increased IC50 in presence of folic acid, KB (KB cells; 20 nM LV) | IC50 (KB cells; [8]) [nM] | fold increased IC50 in presence of folic acid, A431 (A431 cells; 20 nM LV) | IC50 (A431 cells; [9]) [nM] | Ki [4] | Inverse relative affinity for α-FR, L1210-FBP (α-FR [5]) | IC50 (A431-FBP cells; [10]) [nM] | IC50 (KB cells; [11]) [nM] | IC50 (A431 cells; [12]) [nM] | IC50 (KB cells; read-out: Inhibition of cell growth, IC50, KB, 20 nM LV) [nM] | fold increased sensitivity compared with A431, A431-FBP (A431-FBP cells; 20 nM LV) | Ki [3, 13]
C#CCN(c1ccc(C(=O)N[C@@H](CCC(=O)N[C@H](CCC(=O)O)C(=O)O)C(=O)O)cc1)C1CCc2cc3nc(CO)[nH]c(=O)c3cc21 (mixture of isomers) [CB300945 (R, S)] | > 250000 nM | (3100) fold | 2.1 ± 1.1 | 0.67 ± 0.11 | – | (2100) fold | 3.4 ± 0.9 | (1) fold | 9800 ± 3400 | > 250000 nM | 0.73 ± 0.06 | 6500 ± 860 | – | – | – | (4700) fold | 2.6 nM and 3.3 nM
C#CCN(c1ccc(C(=O)N[C@@H](CCC(=O)N[C@H](CCC(=O)O)C(=O)O)C(=O)O)cc1)[C@H]1CCc2cc3nc(CO)[nH]c(=O)c3cc21 [CB300945 (S)] | – | (4300) fold | 1.5 | 0.69 ± 0.05 | – | (1800) fold | 2.7 ± 1.5 | (1) fold | 7000 | – | 0.70 ± 0.015 | 6400 | 4800 ± 750 | 6500 | – | (4700) fold | 1.9 nM
